We go through two substances from patent US11578310B2, “Method for producing CD4/CD8 double-positive T cells” (Kyoto University, priority 2016, dated 2023).

The test deals with hematopoietic progenitor cells induced from iPS cells or ES cells. The test can be described thus: Induction of CD4/CD8 double-positive T cells from hematopoietic progenitor cells induced from pluripotent stem cells (flow cytometry). Type of test: cell-based, human. The following applies: TKT3v 1-7 line; medium containing SB203580 alone or SDF-1α alone vs neither; FIG. 5. How it is done:
On an ultralow-adhesion-treated 6-well plate (CORNING: #3471). TkT3V1-7. Ffl-01, Ffl-14, or KhES-3 was plated at 3×10^5 to 6×10^5 cells/well (Day 0), and the cells were cultured under hypoxic conditions (5% O2) for five days in EB medium (StemPro34 supplemented with 10 μg/ml human insulin, 5.5 μg/ml human transferrin, 5 ng/ml sodium selenite, 2 mM L-glutamine, […] α-monothioglycerol, and 50 μg/ml ascorbic acid) supplemented with 10 ng/ml BMP4, 5 ng/ml bFGF, 15 ng/ml VEGF, and 2 μM SB431542 (Day 5).
Subsequently, 50 ng/ml SCF, 30 ng/ml TPO, and 10 ng/ml Flt3L were added, and additional culture was performed for 5 to 9 days (up to Day 14).

For the substance “4-(4-fluorophenyl)-2-(4-methylsulfonylphenyl)-5-(4-pyridyl)-1H-imidazole [SB203580]”, the “induction of CD4/CD8 double-positive T cells, each agent used alone” value was “can be produced even when each of these was used alone”.

With SDF-1α, the “induction of CD4/CD8 double-positive T cells, each agent used alone” value is listed as “can be produced even when each of these was used alone”.
